Tests used:
[1] = Ultrasound-induced release of ibuprofen from polymer disc into physiological buffer; assay type: physicochemical; conditions: PLAGA 50/50 disc, ibuprofen 10% (m/m)
Description: An object consisting of a pressed circular disc with a diameter of 2 cm and thickness of 2 mm was provided with a thermocouple in the middle and was then placed in a holder in a vessel containing 0.5 litre physiological buffer. […] The PLAGA was purchased from Purac Biochem, The Netherlands. The glass transition temperature of the matrix of poly(lactic acid-co-glycolic acid) used was 12.7° C. (as compared to Example 1 where a Tg of 43° C. is disclosed. This decrease of the Tg is the result of a higher loading of ibuprofen). The disc was irradiated perpendicularly to the surface with a beam of ultrasonic sound with a power of 4 W and a frequency of 10^6 Hz (1 MHz), the probe for generating the ultrasound being 28 mm away from the disc. The speed of the release of ibuprofen into the physiological buffer was determined as a function of time. Both the temperature of the buffer and the temperature in the disc were measured continuously. The irradiation with ultrasonic sound was applied in an alternating manner, periods of irradiation of 120 minutes being alternated with periods of 60 minutes without irradiation.

[2] = Release of active compound from pressed polymer disc into physiological buffer in shaking bath at 20° C. and 50° C.; assay type: physicochemical; conditions: p(BMA-MMA) disc with 75 mol % pBMA, ibuprofen 5% (m/m)
[3] = Concentration of ibuprofen in blood after subcutaneous implantation of disc and alternating ultrasound irradiation; assay type: in vivo; conditions: p(BMA-MMA) disc, ibuprofen 3% (m/m), Lewis rat
From the text: A pressed circular disc of p(BMA-MMA) with ibuprofen incorporated in the matrix with a mass ratio of 3% (m/m), as described in example 1, was implanted subcutaneously in a Lewis rat. On both sides of the disc a thermocouple was implanted to continuously measure the temperature at the surface of the disc. One hour after implantation the disc was irradiated perpendicularly to the surface with a beam of ultrasonic sound with a power of 0.7 W, a frequency of 10^6 Hz (1 MHz), and a duty cycle of 70%, the probe for generating the ultrasound touching the skin of the rat. A standard physiotherapeutic hydrogel was used in between the skin and the probe. The irradiation with ultrasonic sound was applied in an alternating manner, periods of irradiation of 30 minutes being alternated with periods of 30 minutes without irradiation.
Blood samples were taken each 10 minutes during irradiation and each 20 minutes in the periods without irradiation to determine concentration of ibuprofen in the blood stream as a function of time. After 30 minutes irradiation the concentration of ibuprofen was 0.9 μg/ml, after irradiation the plasma concentration went below 0.01 μg/ml.

- speed of release of ibuprofen from the disc ([1]; without irradiation (base value), 8° C.): less than 1×10^−7 gram/minute
- release rate of ibuprofen into the physiological buffer ([2]; 20° C.): 0.36 nmol/h
- release rate of ibuprofen into the physiological buffer ([2]; 50° C.): 10 nmol/h
- plasma concentration of ibuprofen ([3]; after irradiation (period without irradiation)): below 0.01 μg/ml
- concentration at 30 min ([3]; blood, sc, after 30 minutes irradiation (0.7 W, 1 MHz, duty cycle 70%), read-out: concentration of ibuprofen in the blood stream): 900 ng/mL
Compound: CC(C)Cc1ccc(C(C)C(=O)O)cc1 (stereo not drawn) [ibuprofen]
- release of ibuprofen after stopping the irradiation [1]: fell virtually immediately to the base value

Source: patent publication US20050025830A1, “Drug delivery device comprising an active compound and method for releasing an active compound from a drug delivery device” (Technische Universiteit Eindhoven, priority 2003, published 2005)
